Reference: PubChem BioAssay (NCI)
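Grown in 96-well plates, cells were treated for 48 hours with each compound at five concentrations. Insufficient inhibition: endpoint recorded as highest concentration tested. TGI is the concentration that stops growth completely.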

Experiments:
Test in all cases: DTP human tumour cell line panel, 48 h
[1] = system: 786-0 renal
[2] = system: A498 renal
[3] = system: A549 NSCLC
[4] = system: ACHN renal
[5] = system: CAKI-1 renal
[6] = system: CCRF-CEM leukemia
[7] = system: COLO 205 colon
[8] = system: DLD-1 colon
[9] = system: DMS 114 small cell lung
[10] = system: DMS 273 small cell lung
[11] = system: EKVX NSCLC
[12] = system: HCC-2998 colon
[13] = system: HCT-116 colon
[14] = system: HCT-15 colon
[15] = system: HL-60(TB) leukemia
[16] = system: HOP-18 NSCLC
[17] = system: HOP-62 NSCLC
[18] = system: HOP-92 NSCLC
[19] = system: HT29 colon
[20] = system: IGROV1 ovarian
[21] = system: K-562 leukemia
[22] = system: KM12 colon
[23] = system: KM20L2 colon
[24] = system: LOX IMVI melanoma
[25] = system: LXFL 529 NSCLC
[26] = system: M14 melanoma
[27] = system: M19-MEL melanoma
[28] = system: MALME-3M melanoma
[29] = system: MOLT-4 leukemia
[30] = system: NCI-H226 lung
[31] = system: NCI-H23 lung
[32] = system: NCI-H460 lung
[33] = system: NCI-H522 lung
[34] = system: OVCAR-3 ovarian
[35] = system: OVCAR-4 ovarian
[36] = system: OVCAR-5 ovarian
[37] = system: OVCAR-8 ovarian
[38] = system: RPMI-8226 leukemia
[39] = system: RXF 393 renal
[40] = system: RXF-631 renal
[41] = system: SF-268 CNS
[42] = system: SF-295 CNS
[43] = system: SF-539 CNS
[44] = system: SK-MEL-2 melanoma
[45] = system: SK-MEL-28 melanoma
[46] = system: SK-MEL-5 melanoma
[47] = system: SK-OV-3 ovarian
[48] = system: SN12C renal
[49] = system: SNB-19 CNS
[50] = system: SNB-75 CNS
[51] = system: SNB-78 CNS
[52] = system: SR leukemia
[53] = system: TK-10 renal
[54] = system: U251 CNS
[55] = system: UACC-257 melanoma
[56] = system: UACC-62 melanoma
[57] = system: UO-31 renal
[58] = system: XF 498 CNS
[59] = system: BT-549 breast
[60] = system: DU-145 prostate
[61] = system: HS 578T breast
[62] = system: MDA-MB-231 breast
[63] = system: MDA-MB-435
[64] = system: MDA-N
[65] = system: NCI/ADR-RES ovarian
[66] = system: PC-3 prostate
[67] = system: SW-620 colon
[68] = system: T-47D breast

CCOc1ccc2nc(NC(=O)C(=O)C(C#N)CC(C)(C)C=O)sc2c1 (stereo unspecified)
TGI [1]: > 100 µM
TGI [2]: > 100 µM
TGI [3]: > 100 µM
TGI [4]: > 100 µM
TGI [5]: > 100 µM
TGI [6]: 63.1 µM
TGI [7]: > 100 µM
TGI [8]: > 100 µM
TGI [9]: > 100 µM
TGI [10]: 51.5 µM
TGI [11]: > 100 µM
TGI [12]: > 100 µM
TGI [13]: > 100 µM
TGI [14]: > 100 µM
TGI [15]: > 100 µM
TGI [16]: > 100 µM
TGI [17]: > 100 µM
TGI [18]: > 100 µM
TGI [19]: > 100 µM
TGI [20]: > 100 µM
TGI [21]: > 100 µM
TGI [22]: > 100 µM
TGI [23]: > 100 µM
TGI [24]: > 100 µM
TGI [25]: > 100 µM
TGI [26]: > 100 µM
TGI [27]: > 100 µM
TGI [28]: > 100 µM
TGI [29]: > 100 µM
TGI [30]: > 100 µM
TGI [31]: > 100 µM
TGI [32]: > 100 µM
TGI [33]: > 100 µM
TGI [34]: > 100 µM
TGI [35]: > 100 µM
TGI [36]: > 100 µM
TGI [37]: > 100 µM
TGI [38]: > 100 µM
TGI [39]: > 100 µM
TGI [40]: > 100 µM
TGI [41]: > 100 µM
TGI [42]: > 100 µM
TGI [43]: > 100 µM
TGI [44]: > 100 µM
TGI [45]: > 100 µM
TGI [46]: > 100 µM
TGI [47]: > 100 µM
TGI [48]: > 100 µM
TGI [49]: > 100 µM
TGI [50]: > 100 µM
TGI [51]: > 100 µM
TGI [52]: 46 µM
TGI [53]: > 100 µM
TGI [54]: > 100 µM
TGI [55]: > 100 µM
TGI [56]: > 100 µM
TGI [57]: > 100 µM
TGI [58]: > 100 µM

Nc1ccc(S(=O)(=O)Nc2cnc3ccccc3n2)cc1
TGI [1]: > 100 µM
TGI [2]: > 100 µM
TGI [3]: > 100 µM
TGI [4]: > 100 µM
TGI [59]: > 100 µM
TGI [5]: > 100 µM
TGI [6]: > 100 µM
TGI [7]: > 100 µM
TGI [8]: > 100 µM
TGI [9]: > 100 µM
TGI [10]: > 100 µM
TGI [60]: > 100 µM
TGI [11]: > 100 µM
TGI [12]: > 100 µM
TGI [13]: > 100 µM
TGI [14]: > 100 µM
TGI [15]: > 100 µM
TGI [16]: > 100 µM
TGI [17]: > 100 µM
TGI [18]: > 100 µM
TGI [61]: 35.3 µM
TGI [19]: > 100 µM
TGI [20]: > 100 µM
TGI [21]: > 100 µM
TGI [22]: > 100 µM
TGI [23]: > 100 µM
TGI [24]: > 100 µM
TGI [25]: > 100 µM
TGI [26]: > 100 µM
TGI [27]: > 100 µM
TGI [28]: > 100 µM
TGI [62]: > 100 µM
TGI [63]: > 100 µM
TGI [64]: > 100 µM
TGI [29]: > 100 µM
TGI [30]: > 100 µM
TGI [31]: > 100 µM
TGI [32]: > 100 µM
TGI [33]: > 100 µM
TGI [65]: > 100 µM
TGI [34]: > 100 µM
TGI [35]: > 100 µM
TGI [36]: > 100 µM
TGI [37]: > 100 µM
TGI [66]: > 100 µM
TGI [38]: > 100 µM
TGI [39]: > 100 µM
TGI [40]: > 100 µM
TGI [41]: > 100 µM
TGI [42]: > 100 µM
TGI [43]: > 100 µM
TGI [44]: > 100 µM
TGI [45]: > 100 µM
TGI [46]: > 100 µM
TGI [47]: > 100 µM
TGI [48]: > 100 µM
TGI [49]: > 100 µM
TGI [50]: > 100 µM
TGI [51]: > 100 µM
TGI [52]: > 100 µM
TGI [67]: > 100 µM
TGI [68]: > 100 µM
TGI [53]: > 100 µM
TGI [54]: > 100 µM
TGI [55]: > 100 µM
TGI [56]: > 100 µM
TGI [57]: > 100 µM
TGI [58]: > 100 µM
